Article PMC9217908, “Screening of commonly prescribed drugs for effects on the CAT1-mediated transport of L-arginine and arginine derivatives” (Amino Acids, 2022)
Like-named read-outs stand apart in the source and are kept apart here.

Legend:
Test in all cases: cell-based
[1] = molecular target: T1, CAT1 (cationic amino acid transporter 1, CAT1/SLC7A1) (Homo sapiens, UniProt P30825); parameters: species or system HEK-CAT1 (HEK293 stably transfected); Inhibition of net CAT1-mediated [3H]-L-homoarginine (1 uM) uptake, 2.5 min, scintillation counting, vector control subtracted; conditions: HEK293, L-homoarginine 1 uM as substrate; for inhibition at 20 µM: read-out: % Inhibition of L-homoarginine uptake at 20 µM; for inhibition at 200 µM: read-out: % Inhibition of L-homoarginine uptake at 200 µM
T1 construct: full-length human transporter stably transfected in HEK cells (HEK-CAT1); net uptake against HEK-VC vector control cells
T1 sequence (P30825 whole entry): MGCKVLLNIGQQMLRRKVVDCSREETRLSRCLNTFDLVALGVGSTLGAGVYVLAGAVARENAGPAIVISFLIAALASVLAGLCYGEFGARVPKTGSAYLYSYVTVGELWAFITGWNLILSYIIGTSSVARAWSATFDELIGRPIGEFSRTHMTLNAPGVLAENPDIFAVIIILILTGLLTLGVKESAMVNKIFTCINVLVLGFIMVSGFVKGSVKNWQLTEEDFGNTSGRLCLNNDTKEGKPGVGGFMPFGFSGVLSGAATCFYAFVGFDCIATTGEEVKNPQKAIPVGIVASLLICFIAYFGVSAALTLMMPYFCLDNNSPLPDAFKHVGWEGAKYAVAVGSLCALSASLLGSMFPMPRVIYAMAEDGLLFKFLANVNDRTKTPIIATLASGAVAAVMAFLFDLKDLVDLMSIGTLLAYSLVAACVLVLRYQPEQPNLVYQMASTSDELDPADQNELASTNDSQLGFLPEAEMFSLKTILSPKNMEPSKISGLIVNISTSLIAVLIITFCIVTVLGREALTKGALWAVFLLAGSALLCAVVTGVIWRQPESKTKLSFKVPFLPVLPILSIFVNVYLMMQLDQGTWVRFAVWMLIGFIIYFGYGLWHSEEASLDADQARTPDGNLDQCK
Outline: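 HEK-CAT1 cells with HEK-VC vector controls; [3H]-L-homoarginine (1 μM) uptake over 2.5 min with or without test compound at 20 µM or 200 µM. Net CAT1 uptake (CAT1 minus VC) gives inhibition (%) = 100 – (V/V0 × 100). Negative values mean stimulated uptake; n = 6–9 from at least two independent experiments.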

[2] = molecular target: T1, CAT1 (cationic amino acid transporter 1, CAT1/SLC7A1); parameters: species or system HEK-CAT1 (HEK293 stably transfected); Inhibition of net CAT1-mediated [3H]-ADMA (1 uM) uptake, 2.5 min, scintillation counting, vector control subtracted; conditions: HEK293, ADMA 1 uM as substrate; for inhibition at 20 µM: read-out: % Inhibition of ADMA uptake at 20 µM; for inhibition at 200 µM: read-out: % Inhibition of ADMA uptake at 200 µM
Outline: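 HEK cells expressing CAT1 and vector-control cells took up [^3H]-L-arginine for 5 min, or [^3H]-L-homoarginine or [^3H]-ADMA (1 μM) for 2.5 min, with or without drug at 20 or 200 µM. Net CAT1 uptake was CAT1 cells minus control cells, and inhibition (%) = 100 − V/V0×100. Negative values mean stimulation; n = 6–9.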

[3] = molecular target: T1, CAT1 (cationic amino acid transporter 1, CAT1/SLC7A1); parameters: species or system HEK-CAT1 (HEK293 stably transfected); Inhibition of net CAT1-mediated [3H]-L-arginine (100 uM) uptake, 5 min, scintillation counting, vector control subtracted; conditions: HEK293, L-arginine 100 uM as substrate; for inhibition at 20 µM: read-out: % Inhibition of L-arginine uptake at 20 µM; for inhibition at 200 µM: read-out: % Inhibition of L-arginine uptake at 200 µM
Outline: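 HEK-CAT1 and vector-control HEK-VC cells took up [3H]-L-arginine (100 μM) for 5 min, with or without drug at 20 or 200 µM; [3H]-L-homoarginine or [3H]-ADMA uptake ran 2.5 min. Net uptake is CAT1 minus VC cells, and inhibition (%) = 100 − (V/V0 × 100). Negative values mean stimulated uptake.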

| SMILES | inhibition at 20 µM [1] | inhibition at 200 µM [1] | inhibition at 20 µM [2] | inhibition at 200 µM [2] | inhibition at 20 µM [3] | inhibition at 200 µM [3] |
| --- | --- | --- | --- | --- | --- | --- |
| CNCCC(Oc1ccc(C(F)(F)F)cc1)c1ccccc1 (stereo not drawn) [Fluoxetine] | -4.4 ± 5.2% | 25.6 ± 1.2% | -2.4 ± 2% | -18.8 ± 7.8% | 46.5 ± 8.5% | 26 ± 1.5% |
| COc1ccc(Cl)cc1C(=O)NCCc1ccc(S(=O)(=O)NC(=O)NC2CCCCC2)cc1 [Glibenclamide] | 12.4 ± 2.8% | 10.1 ± 3% | 16.8 ± 2.5% | 8.1 ± 2.1% | 13.9 ± 3.4% | 14 ± 9.6% |
| NS(=O)(=O)c1cc2c(cc1Cl)NCNS2(=O)=O [Hydrochlorothiazide] | 8.5 ± 4.8% | 7.9 ± 1.2% | 5.5 ± 2.2% | 9.9 ± 3.5% | 6 ± 3.9% | 20.7 ± 14.1% |
| C[C@]12CCC(=O)C=C1CC[C@@H]1[C@@H]2[C@@H](O)C[C@@]2(C)[C@H]1CC[C@]2(O)C(=O)CO [Hydrocortisone] | 13.9 ± 9.6% | -9.5 ± 2.6% | -0.1 ± 2.8% | -9.9 ± 2.7% | 8.5 ± 4.8% | -4.3 ± 2.7% |
| CC(C)Cc1ccc(C(C)C(=O)O)cc1 (stereo not drawn) [Ibuprofen] | -7.5 ± 2.1% | -26.1 ± 0.6% | -20.2 ± 5.9% | -44.8 ± 7.4% | -5.1 ± 3.6% | -33.7 ± 1.4% |
| Cc1ccc(NC(=O)c2ccc(CN3CCN(C)CC3)cc2)cc1Nc1nccc(-c2cccnc2)n1 [Imatinib] | -24.9 ± 2.1% | -20.9 ± 1.1% | 11.2 ± 3.4% | 20.7 ± 14.1% | -8.2 ± 5.2% | -42.8 ± 0.3% |
| c1c[nH]cn1 [Imidazole] | -3.2 ± 2% | -10.8 ± 1.6% | -4.7 ± 2.1% | 20.7 ± 14.1% | -6.3 ± 5.9% | -8.5 ± 1.5% |
| CN(C)CCCN1c2ccccc2CCc2ccccc21 [Imipramine] | -3.1 ± 1.6% | 15 ± 2.1% | -4.3 ± 2.1% | 14.1 ± 4.1% | 0.08 ± 4.8% | 22.6 ± 5.7% |
| CN1CCC(=C2c3ccccc3CC(=O)c3sccc32)CC1 [Ketotifen] | 7 ± 4.2% | 10.9 ± 2.6% | 6.4 ± 4.4% | 1.4 ± 9.6% | 23.9 ± 0.8% | 9.9 ± 8.2% |
| Nc1ccn([C@@H]2CS[C@H](CO)O2)c(=O)n1 [Lamivudine] | -3.4 ± 0.3% | -3.1 ± 1.4% | -5.3 ± 4% | 22.9 ± 4.9% | 27.4 ± 4.6% | -3.9 ± 4.6% |
| c1ccc([C@H]2CN3CCSC3=N2)cc1 [Levamisole] | 19.6 ± 11.8% | -15.9 ± 3.8% | 18.9 ± 12.5% | -34.3 ± 2.4% | -18.4 ± 6.9% | -17.2 ± 5.1% |
| N[C@@H](Cc1ccc(O)c(O)c1)C(=O)O [Levodopa] | 8.2 ± 3% | 30.4 ± 0.2% | 28.1 ± 0.9% | -6 ± 0.5% | 8.1 ± 3.1% | 31.4 ± 0.6% |
| NCCCC[C@H](N[C@@H](CCc1ccccc1)C(=O)O)C(=O)N1CCC[C@H]1C(=O)O [Lisinopril] | 6.4 ± 3.1% | -11.4 ± 3.8% | 1.6 ± 1.9% | 15.7 ± 0.8% | 4.6 ± 3.8% | -12.6 ± 5% |
| CN(C)C(=O)C(CCN1CCC(O)(c2ccc(Cl)cc2)CC1)(c1ccccc1)c1ccccc1 [Loperamide] | 18.9 ± 0.2% | -2.7 ± 3.9% | 17.6 ± 1.6% | 1.4 ± 2.1% | 16.9 ± 2.3% | -3.6 ± 2.1% |
| CCCCc1nc(Cl)c(CO)n1Cc1ccc(-c2ccccc2-c2nnn[nH]2)cc1 [Losartan] | 11 ± 0.5% | -27.1 ± 2% | 7 ± 3.8% | 12.9 ± 4.1% | 13.5 ± 1.7% | -34.8 ± 1.4% |
| CC12CC3CC(C)(C1)CC(N)(C3)C2 [Memantine] | -3.9 ± 3.4% | -16.6 ± 0.8% | 14.8 ± 2.6% | -9.6 ± 1.8% | -3.2 ± 3.9% | -21.7 ± 5.1% |
| C[C@@H](O)[C@H]1C(=O)N2C(C(=O)O)=C(S[C@@H]3CN[C@H](C(=O)N(C)C)C3)[C@H](C)[C@H]12 [Meropenem] | -19.3 ± 9.1% | -13.6 ± 4.6% | 0.1 ± 3.2% | 12.1 ± 5.1% | -19.1 ± 9.3% | -13.4 ± 4.9% |
| CN(C)C(=N)NC(=N)N [Metformin] | -20.4 ± 13.7% | -18.8 ± 1.3% | -8 ± 4.3% | -8.4 ± 3.1% | -20.7 ± 14.1% | -23.1 ± 1.4% |
| CN(Cc1cnc2nc(N)nc(N)c2n1)c1ccc(C(=O)N[C@@H](CCC(=O)O)C(=O)O)cc1 [Methotrexate] | 19.5 ± 1% | -6.8 ± 0.9% | 5.4 ± 4.3% | 9.9 ± 4.5% | 22.3 ± 0.8% | -7.1 ± 2.1% |
| COc1ccc(OC)c(C(O)C(C)N)c1 (stereo not drawn) [Methoxamine] | 0.7 ± 11.9% | -23.9 ± 2.1% | 0.7 ± 11.9% | 1.8 ± 0.9% | 24.5 ± 10.5% | -23.9 ± 3.7% |
| CCN(CC)CCNC(=O)c1cc(Cl)c(N)cc1OC [Metoclopramide] | -6.3 ± 1.4% | 1.4 ± 3.2% | -3.2 ± 2.1% | 4.2 ± 9.4% | 7.5 ± 2.1% | 2.5 ± 3.5% |
| COCCc1ccc(OCC(O)CNC(C)C)cc1 (stereo not drawn) [Metoprolol] | -21.4 ± 3.7% | 0.3 ± 2.5% | -15.1 ± 7.1% | 19.8 ± 4.1% | 8.1 ± 6.7% | 1.3 ± 3.8% |
| Cc1ncc([N+](=O)[O-])n1CCO [Metronidazole] | -4.7 ± 2% | 0.8 ± 2.2% | -3.1 ± 2% | -16.6 ± 0.4% | 7.7 ± 1.9% | 2.6 ± 3.7% |
| CC#C[C@]1(O)CC[C@H]2[C@@H]3CCC4=CC(=O)CCC4=C3[C@@H](c3ccc(N(C)C)cc3)C[C@@]21C [Mifepristone] | 8.5 ± 11.1% | -15 ± 1.6% | 8.1 ± 11.4% | 5.6 ± 3.7% | 24.6 ± 0.6% | -19.9 ± 4.4% |
| CN1CCOC(c2ccccc2)c2ccccc2C1 (stereo not drawn) [Nefopam] | -8.3 ± 1.6% | -11.6 ± 3.2% | -3.2 ± 0.4% | 32.6 ± 3.7% | -17.2 ± 10.5% | -13.9 ± 5.1% |
| CCOC(=O)C1=C(C)NC(C)=C(C(=O)OC)C1c1cccc([N+](=O)[O-])c1 (stereo not drawn) [Nitrendipine] | 3.4 ± 8.7% | 15.2 ± 4.5% | 3.2 ± 9.5% | 30.4 ± 0.8% | -1.5 ± 7.1% | 26.1 ± 8.1% |
| C#C[C@]1(O)CC[C@H]2[C@@H]3CCC4=CC(=O)CC[C@@H]4[C@H]3CC[C@@]21C [Norethindrone] | 23.5 ± 4% | -12.8 ± 9.6% | -3.8 ± 1.6% | -3.1 ± 0.5% | 26.9 ± 5% | -19.7 ± 3.3% |
| CCCc1nc(C(C)(C)O)c(C(=O)O)n1Cc1ccc(-c2ccccc2-c2nnn[nH]2)cc1 [Olmesartan] | 3 ± 2.3% | -13.7 ± 5.1% | -13.2 ± 1.9% | -7.7 ± 3.5% | 2.8 ± 2.3% | -32.8 ± 1.4% |
| Cc1nccn1CC1CCc2c(c3ccccc3n2C)C1=O (stereo not drawn) [Ondansetron] | -0.5 ± 5.9% | -8.3 ± 1.6% | -0.4 ± 5.9% | 10.1 ± 2.3% | 8.8 ± 7.9% | -5.7 ± 4.1% |
| OCCN1CCN(CCCN2c3ccccc3C=Cc3ccccc32)CC1 [Opipramol] | -16.8 ± 3.4% | 29.5 ± 2.7% | -13.4 ± 3.7% | -1 ± 4.5% | 22.3 ± 1.8% | 29.2 ± 2.7% |
